Source: patent EP2420245A1, “Therapeutic use of agonists or antagonists of bradykinin receptor 1 or 2, for modulation collateral blood vessel growth” (MAX-DELBRÜCK-CENTRUM FÜR MOLEKULARE MEDIZIN, priority 2010, dated 2012)

How the values were obtained:
[1] = system: 3-vessel occlusion (3-VO) cerebral arteriogenesis model in rat; assay: 3-vessel occlusion (3-VO) cerebral arteriogenesis model: collateral growth / diameter of the posterior cerebral artery (postmortem latex perfusion); assay type: in vivo; settings: rat 3-VO model, antagonist treatment, 3 weeks post 3-VO (Figure 5)
Procedure: Pharmacological modulation of arteriogenesis was analysed using a 3 vessel occlusion (3-VO) model for cerebral arteriogenesis in the rat (Occlusion of both vertebral arteries and one carotid artery). Upon occlusion of three of four blood-supplying arteries to the brain, blood flow is redistributed by the recruitment of collateral pathways such as the posterior cerebral artery to supply the hypoperfusion area with blood. The 3-VO model in the rat has been established since 2003 and is acknowledged as a hypoperfusion model for testing cerebral arteriogenesis (Busch, Buschmann et al. 2003). By using the 3-VO model, relevant therapeutic stimulation of arteriogenesis was shown for instance by the application of GM-CSF (Buschmann, Circulation 2003).
Either by inhibition or stimulation of the bradykinin receptor signalling pathways, arteriogenesis was determined and physiological parameters of the brain were tested.
The characterisation of arteriogenesis was carried out via measurement of the artery or blood vessel diameter (posterior cerebral artery - PCA) in addition to via a measurement of the cerebrovascular reactivity (perfusion reserves in the brain). Cerebrovascular anatomy was studied after maximal vasodilation by a modification of the postmortem latex perfusion method of Maeda et al (Maeda, Hata et al. 1998) .

[2] = relative to the natural ligand Lys-desArg-bradykinin; cited from earlier work

## (Des-Arg^9, Leu^8)-bradykinin [H1960]
[1]
  arteriogenesis (collateral growth): inhibited

## CNCC(=O)N[C@@H](CCCNC(=N)N)C(=O)N1CCC[C@H]1C(=O)N1CCC[C@H]1C(=O)NCC(=O)N[C@@H](Cc1ccccc1)C(=O)N[C@@H](CO)C(=O)N1CCC[C@H]1C(=O)N[C@H](Cc1ccccc1)C(=O)O [R838, Sar-[D-Phe]des-Arg^9-bradykinin]
[2]
  susceptibility toward proteolysis: lower
